These results are taken from patent US10968232B2 (Merck Sharp & Dohme Corp., priority 2016, dated 2021).

This experiment addresses T1, human GPR40 (Homo sapiens, UniProt O14842).
T1 construct: expressed in transfected cells
The experiment in a line: Inositol Phosphate Turnover (IP1) Assay. It is filed as cell-based. The following applies: HEK cells stably expressing human GPR40; CisBio IP-One kit; 60 minutes at 37 degrees; read-out: Human IP1 EC50. The protocol: Human GPR40 stable cell-lines were generated in HEK cells. The expression plasmids were transfected using lipofectamine (Life Technologies) following manufacturer's instructions. Stable cell-lines were generated following drug selection and single cell cloning. The assay was performed in 384-well format. HEK cells stably expressing human GPR40 were plated at 7500 cells per well in growth medium (DMEM/10% fetal calf serum). Cell plates were then incubated 16 hours at 37 degrees in a 5% CO2 incubator. Measurement of Inositol Phosphate Turnover (IP1) was performed using the CisBio IP-One kit (Part number 62IPAPEB). After the 16 hour incubation, the growth media was removed by centrifugation using the BlueWasher (AusWasher GUI Ver. v1.0.1.8) Protocol #21-“Light Dry” and 10 ul of stimulation buffer (prepared as described in the kit) was added to each well. In a separate plate, compounds were diluted in DMSO (200-fold over the final concentration in the assay well) and 50 nl was acoustically transferred to the appropriate well in the assay cell plate. The plates were then incubated for 60 minutes at 37 degrees in a 5% CO2 incubator. 10 ul of detection buffer (also prepared as described in the IP-One kit) was added to each well and the plates were incubated at room temperature for 60 minutes in the dark. The plates were then read in a Perkin Elmer EnVision or equivalent reader able to measure FRET. […] Data was normalized to % activity using a reference compound and EC50s determined using a standard 4-parameter fit.

The term pEC50 denotes −log10 of the EC50, conventionally taken in molar units.

pEC50: −log10 of the molar value.

T1 sequence (O14842 whole entry): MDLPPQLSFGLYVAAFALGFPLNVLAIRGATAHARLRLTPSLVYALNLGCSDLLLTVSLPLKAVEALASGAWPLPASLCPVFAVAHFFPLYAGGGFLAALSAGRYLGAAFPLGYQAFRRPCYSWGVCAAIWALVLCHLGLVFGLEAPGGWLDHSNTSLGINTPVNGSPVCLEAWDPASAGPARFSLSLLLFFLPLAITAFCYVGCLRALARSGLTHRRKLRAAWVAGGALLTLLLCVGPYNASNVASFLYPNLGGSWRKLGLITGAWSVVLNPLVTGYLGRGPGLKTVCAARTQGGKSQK

As for `C[C@H](C(=O)O)[C@H](c1ccc2c(c1)OC1(CC2)CCN(Cc2cn(C)nc2C(F)(F)F)CC1)C1CC1` [Example 72, (2S,3R)-3-cyclopropyl-2-methyl-3-(1′-((1-methyl-3-(trifluoromethyl)-1H-pyrazol-4-yl)methyl)spiro[chroman-2,4′-piperidin]-7-yl)propanoic Acid], the pEC50 is 6.00.
`Cc1nocc1-c1ccc(OC(F)(F)F)c(C(C)N2CCC3(CCc4ccc([C@H](C5CC5)[C@H](C)C(=O)O)cc4O3)CC2)c1` (single isomer, unassigned) [Example 115, (2S,3R)-3-cyclopropyl-2-methyl-3-(1′-((R or S)-1-(5-(3-methylisoxazol-4-yl)-2-(trifluoromethoxy)phenyl)eth-yl)spiro[chroman-2,4′-piperidin]-7-yl)propanoic acid]: the pEC50 is 7.38.
The same measure for `C[C@H](C(=O)O)[C@H](c1ccc2c(c1)OC1(CC2)CC(N(C)Cc2cc(C(F)(F)F)ccc2C(F)(F)F)C1)C1CC1` (single isomer, unassigned) [Example 97]: 7.79; for `C[C@H](C(=O)O)[C@H](c1ccc2c(c1)OC1(CC2)CCC(N(C)c2cc(C(F)(F)F)ccc2C(F)(F)F)CC1)C1CC1` (stereo partly drawn) [Example 70, (2S,3R)-3-(4′-((2,5-bis(trifluoromethyl)phenyl) (methyl)amino)spiro [chroman-2,1′-cyclohexan]-7-yl)-3-cyclopropyl-2-methylpropanoic acid]: 8.76; for `COc1cc(C(C)N2CCC3(CCc4ccc([C@H](C5CC5)[C@H](C)C(=O)O)cc4O3)CC2)c(C(F)(F)F)cn1` (single isomer, unassigned) [Example 107, sodium (2S,3R)-3-cyclo-propyl-3-(1′-((S or R)-1-(2-methoxy-5-(trifluoro-methyl)pyridin-4-yl)ethyl)spiro[chroman-2,4′-piperidin]-7-yl)-2-methylpropanoate]: 8.67.
For `C[C@H](C(=O)O)[C@H](c1ccc2c(c1)OC1(CC2)CC(NCc2cc(C(F)(F)F)ccc2C(F)(F)F)C1)C1CC1` (single isomer, unassigned) [Example 95], the pEC50 was 7.31.
The same measure for `C[C@H](C(=O)O)[C@H](c1ccc2c(c1)OC1(CC2)CC2(CN([C@H](C)c3cc(C(F)(F)F)ccc3C(F)(F)F)C2)C1)C1CC1` [Example 126, (2S,3R)-3-cyclopropyl-3-(2,2-(R)-2-(1-(2,5-bis(trifluoromethyl)phenyl)ethyl)-2-azaspiro[3.3]heptane-chroman-7-yl)-2-methylpropanoic Acid]: 8.07; for `CC(c1cc(C2CC2)ccc1C(F)(F)F)N1CCC2(CCc3ccc([C@H](C4CC4)[C@H](C)C(=O)O)cc3O2)CC1` (single isomer, unassigned) [Example 58, (2S,3R)-3-cyclopropyl-3-(1′-((S or R)-1-(5-cyclo-propyl-2-(trifluoromethyl)-phenyl)ethyl)-spiro [chroman-2,4′-piperidin]-7-yl)-2-methylpropanoic acid]: 8.35; for `C[C@H](C(=O)O)[C@H](c1ccc2c(c1)OC1(CC2)CC(Nc2ncccc2C(F)(F)F)C1)C1CC1` (single isomer, unassigned) [Example 87]: 7.82.
The value for `C[C@H](C(=O)O)[C@H](c1ccc2c(c1)OC1(CC2)CCN([C@@H](C)c2nccnc2C(F)(F)F)CC1)C1CC1` (mixture of isomers) [Example 125, (2S,3R)-3-cyclopropyl-2-methyl-3-(1′-((RS)-1-(3-(trifluoromethyl)pyrazin-2-yl)ethyl)spiro[chroman-2,4′-piperidin]-7-yl)propanoic Acid] was 6.38.
The same measure for `C[C@H](C(=O)O)[C@H](c1ccc2c(c1)OC1(CC2)CCN(Cc2nc(C(F)(F)F)ccc2Cl)CC1)C1CC1` [Example 32, (2S,3R)-3-(1′-((3-chloro-6-(trifluoromethyl)-pyridin-2-yl)methyl)-spiro-[chroman-2,4′-piperidin]-7-yl)-3-cyclopropyl-2-methylpropanoic acid]: 6.75.
